Assay results: US12029774B2, “Açai berry seed extract, fractions of açai berry seed extracts, process for obtaining açai berry seed extracts, pharmaceutical and food compositions and method for the treatment of diseases or disorders with açai berry seed extract” (Power Seed Comércio e Representações Ltda, priority 2018, dated 2024)

System: mesenteric vascular bed
Test: In vitro arteries relaxation test (perfused mesenteric vascular bed pre-contracted with noradrenaline)
Parameters: species or system Wistar mice
Conditions: inferred from HPLC-MSMS/CCD of EHA and fraction 4 with FIGS. 6a and 6e; component not tested alone
Method: The vasodilatory activity of EHA and/or its fractions was determined and quantified by ID50 (Inhibitory Dose at 50%) in preparation of the mesenteric arterial bed of male and adult Wistar mice, in vitro. After anesthesia (thiopental, […] ip), a broad laparotomy is performed to the mice in order to expose the entire mesenteric circulation. The mesenteric artery was isolated and cannulated with cannula and polyethylene. Immediately 1 to 2 ml of Krebs nourishing solution with heparin was injected in order to avoid mesenteric intravascular coagulation. The mesenteric vascular bed was dissected, placed in a heated tub and perfused with Krebs solution at 37° C., by peristaltic pump (4 ml/minute). The perfusion pressure was recorded continuously in computer, through program (PowerLab 4/30). After a period of equilibration, it was added (30 μM) noradrenaline in the Krebs fluid in order to raise the vascular tone of the mesenteric vascular bed. Once the noradrenaline constant pressure response was obtained in the mesenteric vascular bed, increasing doses of EHA and/or fractions in the mesenteric vascular bed were injected. Perfusion pressure reductions induced by extracts and/or fractions were analyzed by the computer and expressed as reduction percent of noradrenaline-induced pressure response. […]

Compound: Oc1cc(O)c2c(c1)O[C@H](c1ccc(O)c(O)c1)[C@H](O)[C@H]2c1c(O)cc(O)c2c1O[C@H](c1ccc(O)c(O)c1)[C@H](O)C2 [procyanidin B2]
- activity of extract component inferred from chromatogram and artery relaxation test: compound with the highest activity
